Source: ChEMBL document CHEMBL5252548, “A review on flavonoid-based scaffolds as multi-target-directed ligands (MTDLs) for Alzheimer's disease” (Eur J Med Chem, 2018)

How the values were obtained:
[1] = biological target: T1, Amyloid-beta precursor protein (Homo sapiens, UniProt P05067); experiment: Inhibition of amyloid beta (1 to 42) (unknown origin) fibril formation incubated for 1 hr by thioflavin-T fluorescence assay
[2] = biological target: T1, Amyloid-beta precursor protein; experiment: Inhibition of self-induced amyloid beta (unknown origin) aggregation at 100 uM relative to control
Acetylcholinesterase [3] = biological target: T2, Acetylcholinesterase (Homo sapiens, UniProt P22303); experiment: Inhibition of AChE (unknown origin) at 100 uM relative to control
T2 sequence (P22303 whole entry): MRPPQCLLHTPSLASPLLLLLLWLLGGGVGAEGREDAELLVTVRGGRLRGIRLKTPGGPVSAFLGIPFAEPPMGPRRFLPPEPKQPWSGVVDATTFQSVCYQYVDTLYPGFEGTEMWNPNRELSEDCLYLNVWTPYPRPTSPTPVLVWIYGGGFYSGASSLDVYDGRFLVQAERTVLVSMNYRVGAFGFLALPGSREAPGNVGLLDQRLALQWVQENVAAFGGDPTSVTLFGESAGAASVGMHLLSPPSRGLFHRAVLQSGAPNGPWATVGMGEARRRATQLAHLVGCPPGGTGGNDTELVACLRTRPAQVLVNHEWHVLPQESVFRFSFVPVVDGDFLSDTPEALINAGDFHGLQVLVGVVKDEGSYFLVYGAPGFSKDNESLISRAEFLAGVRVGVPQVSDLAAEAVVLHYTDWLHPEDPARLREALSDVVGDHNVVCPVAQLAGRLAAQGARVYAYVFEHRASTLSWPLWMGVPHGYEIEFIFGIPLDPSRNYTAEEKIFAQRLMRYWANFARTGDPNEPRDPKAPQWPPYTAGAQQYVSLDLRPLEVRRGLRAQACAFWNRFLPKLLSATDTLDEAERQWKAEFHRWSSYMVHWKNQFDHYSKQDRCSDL

Beta-secretase 1 [4] = biological target: T3, Beta-secretase 1 (Homo sapiens, UniProt P56817); experiment: Inhibition of human BACE-1 at 100 uM relative to control
T3 sequence (P56817 whole entry): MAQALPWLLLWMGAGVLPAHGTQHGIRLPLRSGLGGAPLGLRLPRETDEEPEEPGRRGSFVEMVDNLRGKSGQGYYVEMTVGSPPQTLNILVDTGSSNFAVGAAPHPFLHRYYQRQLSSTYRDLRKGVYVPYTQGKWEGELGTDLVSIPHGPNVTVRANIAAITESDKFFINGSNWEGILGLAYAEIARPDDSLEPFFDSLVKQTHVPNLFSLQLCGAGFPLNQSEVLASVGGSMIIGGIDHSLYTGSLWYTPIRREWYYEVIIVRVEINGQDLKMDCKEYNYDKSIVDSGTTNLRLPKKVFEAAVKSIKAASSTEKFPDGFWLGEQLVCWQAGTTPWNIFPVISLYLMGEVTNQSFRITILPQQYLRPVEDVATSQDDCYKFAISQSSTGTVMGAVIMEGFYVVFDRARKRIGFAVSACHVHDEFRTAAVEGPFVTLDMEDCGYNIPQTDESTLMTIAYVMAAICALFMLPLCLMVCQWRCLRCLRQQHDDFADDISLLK

Acetylcholinesterase [5] = biological target: T2, Acetylcholinesterase; experiment: Inhibition of AChE (unknown origin)
Cholinesterase [6] = biological target: T4, Cholinesterase (Homo sapiens, UniProt P06276); experiment: Inhibition of BuChE (unknown origin)
T4 sequence (P06276 whole entry): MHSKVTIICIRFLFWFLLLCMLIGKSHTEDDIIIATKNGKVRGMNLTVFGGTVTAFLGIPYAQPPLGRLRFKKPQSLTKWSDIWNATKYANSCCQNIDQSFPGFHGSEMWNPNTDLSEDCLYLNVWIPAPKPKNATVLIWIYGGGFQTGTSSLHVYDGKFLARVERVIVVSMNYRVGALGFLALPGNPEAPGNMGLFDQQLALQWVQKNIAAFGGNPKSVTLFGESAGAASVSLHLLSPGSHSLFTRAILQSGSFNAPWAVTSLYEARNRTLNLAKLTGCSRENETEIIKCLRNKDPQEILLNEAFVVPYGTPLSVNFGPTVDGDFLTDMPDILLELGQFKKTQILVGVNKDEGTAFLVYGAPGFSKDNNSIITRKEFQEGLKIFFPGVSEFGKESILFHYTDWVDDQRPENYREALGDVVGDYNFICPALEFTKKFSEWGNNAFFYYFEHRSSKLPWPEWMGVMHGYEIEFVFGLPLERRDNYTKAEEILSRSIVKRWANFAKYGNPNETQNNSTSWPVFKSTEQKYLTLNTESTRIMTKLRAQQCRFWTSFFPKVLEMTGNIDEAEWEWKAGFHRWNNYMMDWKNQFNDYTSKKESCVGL

Beta-secretase 1 [7] = biological target: T3, Beta-secretase 1; experiment: Inhibition of human BACE-1
[8] = biological target: T1, Amyloid-beta precursor protein; experiment: Inhibition of self-induced amyloid beta (1 to 42) (unknown origin) aggregation at 10 uM relative to control
[9] = biological target: T5, Amine oxidase [flavin-containing] B (Homo sapiens, UniProt P27338); experiment: Inhibition of human MAO-B
T5 sequence (P27338 whole entry): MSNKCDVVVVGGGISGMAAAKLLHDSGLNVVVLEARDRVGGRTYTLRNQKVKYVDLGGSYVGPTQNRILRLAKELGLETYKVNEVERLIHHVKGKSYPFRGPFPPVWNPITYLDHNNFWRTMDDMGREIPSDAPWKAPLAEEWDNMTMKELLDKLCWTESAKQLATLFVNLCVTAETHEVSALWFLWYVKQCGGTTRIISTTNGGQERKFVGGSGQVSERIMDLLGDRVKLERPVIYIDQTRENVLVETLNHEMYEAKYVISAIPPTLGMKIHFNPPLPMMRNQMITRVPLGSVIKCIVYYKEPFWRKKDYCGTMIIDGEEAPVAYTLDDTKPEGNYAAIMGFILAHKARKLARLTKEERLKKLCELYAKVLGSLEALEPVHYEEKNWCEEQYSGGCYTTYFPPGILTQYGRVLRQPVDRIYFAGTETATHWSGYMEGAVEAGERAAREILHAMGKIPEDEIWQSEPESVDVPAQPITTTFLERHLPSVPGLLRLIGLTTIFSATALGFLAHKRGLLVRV

SH-SY5Y [10] = experiment: Neuroprotective activity against human SH-SY5Y cells assessed as increase in cell viability at 25 uM relative to control; assay type: functional
Mus musculus [11] = experiment: Antialzheimer activity in Tg2576 mouse model assessed as decrease in soluble amyloid beta level in brain homogenate at 20 mg/kg, ip administered daily for 30 days relative to control; assay type: functional; parameters: scale not given: the % may be the effect or the level left; conditions: time 30 day
[12] = biological target: T1, Amyloid-beta precursor protein; experiment: Inhibition of self-induced amyloid beta (unknown origin) aggregation relative to control; conditions: concentration not given here
Cholinesterase [13] = biological target: T4, Cholinesterase; experiment: Inhibition of human serum BuChE preincubated for 20 mins followed by substrate addition by Ellman's method; assay type: cell-free
Acetylcholinesterase [14] = biological target: T2, Acetylcholinesterase; experiment: Inhibition of human recombinant AChE preincubated for 20 mins followed by substrate addition by Ellman's method
[15] = biological target: T1, Amyloid-beta precursor protein; experiment: Inhibition of self-induced amyloid beta (unknown origin) aggregation at 3 uM relative to control
Cholinesterase [16] = biological target: T4, Cholinesterase; experiment: Inhibition of BuChE (unknown origin) relative to control; conditions: concentration not given here
Acetylcholinesterase [17] = biological target: T2, Acetylcholinesterase; experiment: Inhibition of AChE (unknown origin) relative to control; conditions: concentration not given here
Beta-secretase 1 [18] = biological target: T3, Beta-secretase 1; experiment: Inhibition of BACE-1 (unknown origin) relative to control; conditions: concentration not given here
HT-22 = experiment: Neuroprotective activity against glutamate-induced cell death in mouse HT-22 cells at 10 uM relative to control; assay type: functional
[19] = biological target: T1, Amyloid-beta precursor protein; experiment: Inhibition of self-induced amyloid beta (unknown origin) aggregation at 20 uM relative to control
Beta-secretase 1 [20] = biological target: T3, Beta-secretase 1; experiment: Inhibition of human BACE-1 at 500 uM relative to control
[21] = biological target: T1, Amyloid-beta precursor protein; experiment: Inhibition of self-induced amyloid beta (unknown origin) aggregation
[22] = biological target: T5, Amine oxidase [flavin-containing] B; experiment: Inhibition of MAO-B (unknown origin)
Acetylcholinesterase [23] = biological target: T2, Acetylcholinesterase; experiment: Inhibition of AChE (unknown origin) assessed as inhibition constant
[24] = biological target: T1, Amyloid-beta precursor protein; experiment: Inhibition of amyloid beta (unknown origin) aggregation
[25] = biological target: Glycogen synthase kinase-3 beta (Homo sapiens) (UniProt P49841); experiment: Non-competitive inhibition of GSK3-beta (unknown origin) assessed as inhibition of tau hyperphosphorylation at 100 ug/ml incubated for 1 hr in presence of ATP by ADP-Glo kinase assay relative to control; conditions: dose 100.0 µg/ml
Chain of Glycogen synthase kinase-3 beta (Homo sapiens) (P49841 whole entry, looked up): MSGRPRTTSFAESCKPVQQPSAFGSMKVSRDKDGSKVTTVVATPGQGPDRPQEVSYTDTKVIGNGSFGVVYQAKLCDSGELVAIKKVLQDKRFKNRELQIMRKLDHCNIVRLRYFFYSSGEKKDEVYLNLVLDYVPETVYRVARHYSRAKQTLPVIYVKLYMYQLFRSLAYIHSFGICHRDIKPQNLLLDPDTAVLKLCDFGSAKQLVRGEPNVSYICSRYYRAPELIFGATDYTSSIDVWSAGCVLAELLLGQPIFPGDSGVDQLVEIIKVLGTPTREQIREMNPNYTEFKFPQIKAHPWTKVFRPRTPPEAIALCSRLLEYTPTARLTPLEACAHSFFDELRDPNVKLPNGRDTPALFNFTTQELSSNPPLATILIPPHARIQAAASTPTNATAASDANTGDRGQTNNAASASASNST

SH-SY5Y [26] = experiment: Neuroprotective activity against amyloid beta treated human SH-SY5Y cells at 1 nM relative to control; assay type: functional
[27] = Antioxidant activity of compound assessed as trolox equivalent preincubated for 15 mins followed by AAPH addition and measured for 90 mins by ORAC-FL assay; assay type: functional; conditions: time 105.0 min
Mus musculus [28] = experiment: Anti-alzheimer activity in APP/PS1 mouse model assessed as reduction in cerebral levels of insoluble amyloid beta (1 to 40) at 40 mg/kg, po administered via oral gavage once a day for 12 weeks relative to control; assay type: functional; parameters: scale not given: the % may be the effect or the level left
HepG2 = experiment: Cytotoxicity against human HepG2 cells assessed as reduction in cell viability at 10 uM relative to control; assay type: functional

T1 sequence (P05067 whole entry): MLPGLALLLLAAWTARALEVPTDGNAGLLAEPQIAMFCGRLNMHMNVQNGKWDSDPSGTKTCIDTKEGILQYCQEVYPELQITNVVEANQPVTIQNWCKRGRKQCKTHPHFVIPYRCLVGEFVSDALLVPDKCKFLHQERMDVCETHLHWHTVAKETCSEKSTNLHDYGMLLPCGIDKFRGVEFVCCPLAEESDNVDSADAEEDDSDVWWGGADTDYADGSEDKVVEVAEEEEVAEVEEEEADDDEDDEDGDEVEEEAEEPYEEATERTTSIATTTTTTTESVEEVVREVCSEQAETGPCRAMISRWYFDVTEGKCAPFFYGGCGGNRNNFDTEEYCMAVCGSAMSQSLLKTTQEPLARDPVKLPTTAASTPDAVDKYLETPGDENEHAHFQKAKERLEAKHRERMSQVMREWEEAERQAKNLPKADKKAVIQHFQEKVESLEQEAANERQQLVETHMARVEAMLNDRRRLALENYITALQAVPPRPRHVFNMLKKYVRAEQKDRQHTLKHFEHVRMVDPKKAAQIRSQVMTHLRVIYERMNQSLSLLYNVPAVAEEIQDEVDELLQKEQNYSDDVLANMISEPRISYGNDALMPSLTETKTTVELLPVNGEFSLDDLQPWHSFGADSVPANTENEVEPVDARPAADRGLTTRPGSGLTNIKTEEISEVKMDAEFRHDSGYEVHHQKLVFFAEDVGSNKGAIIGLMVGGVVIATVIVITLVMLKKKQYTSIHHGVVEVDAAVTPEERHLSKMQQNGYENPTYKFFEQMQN

Compound O=c1c(O)c(-c2ccc(O)cc2O)oc2cc(O)cc(O)c12 [MORIN] has an IC50 [1] of 7.4 µM.

Work on CC(C)=CCc1cc2c(cc1O)O[C@@H](c1ccc(O)cc1)CC2=O yielded an inhibition [2] of 19%, an inhibition (Acetylcholinesterase [3]) of 34% and an inhibition (Beta-secretase 1 [4]) of 17%.

Compound COc1cc2oc3cccc(O)c3c(=O)c2c(O)c1CN(C)C has an IC50 (Acetylcholinesterase [5]) of 100 µM.

CCC(=O)CNC(=O)Nc1nc2ccc(-c3oc4c(OC)c(O)c(O)c(OC)c4c(=O)c3O)cc2s1 showed an IC50 (Cholinesterase [6]) of 0.00032 µM, an IC50 (Beta-secretase 1 [7]) of 2.1 µM and an IC50 (Acetylcholinesterase [5]) of 0.1 µM.

Work on COc1ccc(-c2cc(=O)c3ccc(OCCN4CCOCC4)cc3o2)cc1 yielded an IC50 (Cholinesterase [6]) of 0.0543 µM and an IC50 (Acetylcholinesterase [5]) of 0.011 µM.

For O=c1c(O)c(-c2cc(O)c(O)c(O)c2)oc2cc(O)cc(O)c12, the inhibition [8] was 65.2%.

For COc1ccc(/C=C2\COc3cc(OCCN4CCCCC4)ccc3C2=O)cc1, the IC50 [9] was 25 µM.

With COc1ccc(/C=C2\COc3cc(OCCCCCN4CCCCC4)ccc3C2=O)cc1 the IC50 [9] was 0.65 µM.

COc1cc(-c2oc3cc(O)cc(O)c3c(=O)c2O)ccc1O [ISORHAMNETIN] showed an Activity (SH-SY5Y [10]) of 64%.

Work on CN(C)Cc1c(O)c(O)c(O)c2c(=O)cc(-c3ccccc3)oc12 yielded an IC50 (Acetylcholinesterase [5]) of 82 µM.

Work on O=c1cc(-c2ccc(O)c(O)c2)oc2cc(O)cc(O)c12 [LUTEOLIN] yielded an Activity (Mus musculus [11]) of 49%.

In the case of CNC(=O)Oc1cccc(CN(C)CCCCCCCOc2cccc(-c3cc(=O)c4ccccc4o3)c2)c1, the inhibition [12] is reported as 17.2%, the IC50 (Cholinesterase [13]) is reported as 0.0637 µM and the IC50 (Acetylcholinesterase [14]) is reported as 0.00052 µM.

COc1c(O)cc2oc3cc(O)c(CC=C(C)C)c(O)c3c(=O)c2c1CCC(C)(C)O [GARCINONE D] showed an inhibition [15] of 34.9%, an inhibition (Cholinesterase [16]) of 15% and an inhibition (Acetylcholinesterase [17]) of 12.9%. It also gave an inhibition (Beta-secretase 1 [18]) of 62.7% and an Activity (HT-22) of 45.4%.

Work on C[C@@H]1O[C@@H](OC[C@H]2O[C@@H](Oc3cc(O)c4c(c3)O[C@H](c3ccc(O)cc3)CC4=O)[C@H](O)[C@@H](O)[C@@H]2O)[C@H](O)[C@H](O)[C@H]1O yielded an inhibition [19] of 53% and an inhibition (Beta-secretase 1 [20]) of 79.3%.

For COc1ccc(/C=C2\COc3cc(OCCCN4CCCCC4)ccc3C2=O)cc1, the IC50 (Cholinesterase [6]) was 9.21 µM, the IC50 [9] was 3.44 µM and the IC50 (Acetylcholinesterase [5]) was 3.94 µM.

With CCN(CC)CCOc1ccc2c(=O)cc(-c3ccc(OC)cc3)oc2c1 the IC50 (Cholinesterase [6]) was 0.0491 µM and the IC50 (Acetylcholinesterase [5]) was 0.0271 µM.

With COc1ccc(-c2cc(=O)c3ccc(OCCN4CCN(CCO)CC4)cc3o2)cc1 the IC50 (Cholinesterase [6]) was 0.0216 µM and the IC50 (Acetylcholinesterase [5]) was 0.00756 µM.

Cc1ccc(NCC[C@@H]2CCCN3CCCC[C@H]23)c2c(=O)c3ccccc3sc12 gave an IC50 (Cholinesterase [6]) of 0.46 µM, an IC50 [21] of 0.84 µM and an IC50 (Acetylcholinesterase [5]) of 5.2 µM.

COc1cc(O)c2c(=O)c3cccc(O)c3oc2c1 showed an IC50 [22] of 33 µM and a Ki (Acetylcholinesterase [23]) of 53 µM.

Work on O=C(O[C@@H]1Cc2c(O)cc(O)cc2O[C@@H]1c1cc(O)c(O)c(O)c1)c1cc(O)c(O)c(O)c1 [EPIGALOCATECHIN GALLATE] yielded an IC50 [24] of 0.18 µM.

COc1cc2c(cc1CC=C(C)C)C(=O)C[C@@H](c1ccc(O)cc1)O2 gave an inhibition [2] of 57%, an inhibition (Acetylcholinesterase [3]) of 81% and an inhibition (Beta-secretase 1 [4]) of 21%.

O=c1cc(-c2ccc(O)c(O)c2)oc2cc(O)c([C@@H]3O[C@H](CO)[C@@H](O)[C@H](O)[C@H]3O)c(O)c12 gave an inhibition [25] of 48.4%.

With CCN(CC)CCCCOc1cc(O)c2c(=O)c(-c3ccc(O)cc3)coc2c1 the IC50 (Cholinesterase [6]) was over 100 µM, the Activity (SH-SY5Y [26]) was 75.7% and the IC50 (Acetylcholinesterase [5]) was 0.1 µM.

Work on Cc1ccc(NCC[C@@H]2CCCN3CCCC[C@H]23)c2c(=O)c3ccccc3oc12 yielded an IC50 (Cholinesterase [6]) of 0.37 µM, an IC50 [21] of 13 µM and an IC50 (Acetylcholinesterase [5]) of 0.14 µM.

CCN(CC)C(=O)Oc1ccc(-c2cc(=O)c3c(O)c(O)c(O)cc3o2)cc1 showed an IC50 (Cholinesterase [6]) of 22.1 µM, an Activity [27] of 10.3 and an IC50 (Acetylcholinesterase [5]) of 1.2 µM.

For Oc1cc(O)c2c(c1)O[C@H](c1ccc(O)c(O)c1)[C@H](O)C2 [(-)-EPICATECHIN], the IC50 [24] was 5.3 µM.

For O=C(O[C@H]1Cc2c(O)cc(O)cc2O[C@H]1c1ccc(O)c(O)c1)c1cc(O)c(O)c(O)c1, the IC50 (Beta-secretase 1 [7]) was 2.4 µM and the IC50 [24] was 3 µM.

With O=c1cc(-c2ccc(O)cc2)oc2cc(O)cc(O)c12 [APIGENIN] the Activity (Mus musculus [28]) was 20%.

With COc1ccc(-c2cc(=O)c3ccc(OCCN4CCCC4)cc3o2)cc1 the IC50 (Cholinesterase [6]) was 0.0695 µM and the IC50 (Acetylcholinesterase [5]) was 0.105 µM.

For COc1cc(O)c2c(=O)c(O)c(-c3ccc(O)c(O)c3)oc2c1 [RHAMNETIN], the IC50 [1] was 2.3 µM.

Work on O=c1c(O)c(-c2ccc(O)c(O)c2)oc2cc(O)cc(O)c12 [QUERCETIN] yielded an IC50 [1] of 2.4 µM.

Compound COc1ccc(-c2cc(=O)c3ccc(OCCN4CCC(C)CC4)cc3o2)cc1 has an IC50 (Cholinesterase [6]) of 0.0247 µM and an IC50 (Acetylcholinesterase [5]) of 0.00633 µM.

CN(C)CCNC(=O)COc1cc(O)c2c(=O)c(-c3ccc(O)cc3)coc2c1.Cl gave an inhibition (Cholinesterase [16]) of 26%, an Activity (HepG2) of 1.53% and an IC50 (Acetylcholinesterase [5]) of 2.75 µM.

Compound COc1cc(-c2cc(=O)c3c(O)c([C@@H]4O[C@H](CO)[C@@H](O)[C@H](O)[C@H]4O)c(O)cc3o2)ccc1O has an inhibition [25] of 41.5%.

Work on O=c1c(O)c(-c2ccc(O)c(O)c2)oc2cc(O)ccc12 [FISETIN] yielded an IC50 [1] of 12.5 µM.
